What all share (conditions): dose 0.25-4 mg/L
The test system of assay [1] is Pseudomonas aeruginosa. The assay is described as follows: Antibacterial activity against Pseudomonas aeruginosa ATCC 27853 assessed as fold increase in MIC at 0.25 to 4 mg/L in presence of lung surfactant by broth microdilution assay. Format: functional. (In general: Dilution methods test growth across graded concentrations, often in twofold steps.)
Assay [2] deals with Klebsiella pneumoniae. Description: Antibacterial activity against Klebsiella pneumoniae FADDI-KP065 assessed as fold increase in MIC at 0.25 to 4 mg/L in presence of lung surfactant by broth microdilution assay. Format: functional.
The subject of assay [3] is Acinetobacter baumannii. Description: Antibacterial activity against Acinetobacter baumannii FADDI-AB030 assessed as fold increase in MIC at 0.25 to 4 mg/L in presence of lung surfactant by broth microdilution assay. It counts as functional.
The test system of assay [4] is Pseudomonas aeruginosa. Description: Antibacterial activity against Pseudomonas aeruginosa ATCC 27853 assessed as decrease in bacterial growth at 0.25 to 4 mg/L in presence of lung surfactant by broth microdilution assay. Format: functional, organism-based.
In assay [5] the test system is Klebsiella pneumoniae. The assay is described as follows: Antibacterial activity against Klebsiella pneumoniae FADDI-KP065 assessed as decrease in bacterial growth at 0.25 to 4 mg/L in presence of lung surfactant by broth microdilution assay. Format: functional, organism-based.
For assay [6], the system named is Acinetobacter baumannii. The assay is described as follows: Antibacterial activity against Acinetobacter baumannii FADDI-AB030 assessed as decrease in bacterial growth at 0.25 to 4 mg/L in presence of lung surfactant by broth microdilution assay. It counts as functional, organism-based.

The source made the active and inactive calls. The rule behind the calls is not given here. Where a SMILES comes first, the peptide text is derived from it. Bridges are numbered along the chain shown (N, C = ends). [ ]: non-standard residue; d: D form. The star is where a group is joined. X1 = CC[C@H](C)CCCCC(=O)*; dDab = NCC[C@@H](N)C(=O)O; Dab = NCC[C@H](N)C(=O)O

Consider `CCCCCCCC[C@@H]1NC(=O)[C@@H](Cc2ccccc2)NC(=O)[C@@H](CCN)NC(=O)[C@@H](NC(=O)[C@H](CCN)NC(=O)[C@@H](NC(=O)[C@H](CCN)NC(=O)CCCCCCC)[C@@H](C)O)CCNC(=O)[C@H]([C@@H](C)O)NC(=O)[C@H](CCN)NC(=O)[C@H](CCN)NC1=O`, for which the “fold change (FC)” value in assay [1] is 8; in assay [2], 2; in assay [3], 2.
Consider `CCCCCC(=O)N[C@@H](CCN)C(=O)N[C@@H](C(=O)N[C@@H](CCN)C(=O)N[C@H]1CCNC(=O)[C@@H]([C@H](C)O)NC(=O)[C@H](CCN)NC(=O)[C@H](CCN)NC(=O)[C@H]([C@H](C)O)NC(=O)[C@@H](CC(C)C)NC(=O)[C@H](CCN)NC1=O)[C@H](C)O`, for which the result in assay [4], in assay [5] and in assay [6] was inactive.
On to `CCCCCCCCCC(=O)N[C@@H](CCN)C(=O)N[C@H](C(=O)N[C@@H](CCN)C(=O)N[C@H]1CCNC(=O)[C@H]([C@@H](C)O)NC(=O)[C@H](CCN)NC(=O)[C@H](CCN)NC(=O)[C@H]([C@H](C)O)NC(=O)[C@@H](CC(C)C)NC(=O)[C@H](CCN)NC1=O)[C@@H](C)O`, for which the outcome in assay [4], in assay [5] and in assay [6] was Active.
Take `CC[C@H](C)CCCCC(=O)N[C@@H](CCN)C(=O)N[C@H](C(=O)N[C@@H](CCN)C(=O)N[C@H]1CCNC(=O)[C@H]([C@@H](C)O)NC(=O)[C@H](CCN)NC(=O)[C@H](CCN)NC(=O)[C@H](CC(C)C)NC(=O)[C@@H](Cc2ccccc2)NC(=O)[C@H](CCN)NC1=O)[C@@H](C)O` (X1-[Dab]T[Dab][Dab][Dab][dF]L[Dab][Dab]T; lactam 4-C): the result in assay [4], in assay [5] and in assay [6] was Active.
On to `CC[C@H](C)CCCCC(=O)N[C@@H](CCN)C(=O)N[C@H](C(=O)N[C@@H](CCN)C(=O)N[C@H]1CCNC(=O)[C@H]([C@@H](C)O)NC(=O)[C@H](CCN)NC(=O)[C@H](CCN)NC(=O)[C@H]([C@@H](C)O)NC(=O)[C@@H](CC(C)C)NC(=O)[C@H](CCN)NC1=O)[C@@H](C)O` (X1-[Dab]T[Dab][Dab][Dab][dL]T[Dab][Dab]T; lactam 4-C), for which the result in assay [4], in assay [5] and in assay [6] was Active. Moreover, the entries for the “fold change (FC)” value in assay [1], in assay [2] and in assay [3] were 2, 4 and 4, respectively.
`CC[C@H](C)CCCCC(=O)N[C@@H](CCN)C(=O)N[C@H](C(=O)N[C@H](CCN)C(=O)N[C@H]1CCNC(=O)[C@H]([C@@H](C)O)NC(=O)[C@H](CCN)NC(=O)[C@H](CCN)NC(=O)[C@H]([C@@H](C)O)NC(=O)[C@@H](CC(C)C)NC(=O)[C@H](CCN)NC1=O)[C@@H](C)O` (X1-[Dab]T[dDab][Dab][Dab][dL]T[Dab][Dab]T; lactam 4-C): the result in assay [4], in assay [5] and in assay [6] was Active. Besides, the “fold change (FC)” value was determined as 2 in assay [1], 8 in assay [2] and 4 in assay [3].
Turning to COLISTIN, the outcome in assay [4], in assay [5] and in assay [6] was Active. Further, the figures for the fold change (FC) in assay [1], in assay [2] and in assay [3] were 4, 2 and 4, respectively.
